According to publication PMC8920097, “Prediction of hERG inhibition of drug discovery compounds using biomimetic HPLC measurements” (ADMET & DMPK, 2021):
Read-outs that look alike come from different tables or passages of the source.

Legend:
[1] = system: alpha-1-acid-glycoprotein (AGP); assay: Protein binding on Chiralpak AGP HPLC column
Method: (§1) The measurement of the biomimetic properties of the available drugs was conducted in our laboratories. Generic gradient HPLC methods were used to determine the chromatographic hydrophobicity Index (CHI) using mobile phases at three different pH values. The protein binding of the compounds was measured using immobilised human serum albumin (HSA), and alpha-1-acid-glycoprotein (AGP) stationary phases. The phospholipid-binding was measured using the immobilised artificial membrane (IAM) stationary phase. The aim was to establish relationships between the cardiotoxicity potential and the biomimetic binding properties of the drugs and to evaluate their predictive performance.

hERG channel = conditions: cited from earlier work
[2] = target: human serum albumin (HSA) (Homo sapiens, UniProt P02768); assay: Protein binding on Chiralpak HSA HPLC column
Chain of human serum albumin (HSA) (P02768 25-609): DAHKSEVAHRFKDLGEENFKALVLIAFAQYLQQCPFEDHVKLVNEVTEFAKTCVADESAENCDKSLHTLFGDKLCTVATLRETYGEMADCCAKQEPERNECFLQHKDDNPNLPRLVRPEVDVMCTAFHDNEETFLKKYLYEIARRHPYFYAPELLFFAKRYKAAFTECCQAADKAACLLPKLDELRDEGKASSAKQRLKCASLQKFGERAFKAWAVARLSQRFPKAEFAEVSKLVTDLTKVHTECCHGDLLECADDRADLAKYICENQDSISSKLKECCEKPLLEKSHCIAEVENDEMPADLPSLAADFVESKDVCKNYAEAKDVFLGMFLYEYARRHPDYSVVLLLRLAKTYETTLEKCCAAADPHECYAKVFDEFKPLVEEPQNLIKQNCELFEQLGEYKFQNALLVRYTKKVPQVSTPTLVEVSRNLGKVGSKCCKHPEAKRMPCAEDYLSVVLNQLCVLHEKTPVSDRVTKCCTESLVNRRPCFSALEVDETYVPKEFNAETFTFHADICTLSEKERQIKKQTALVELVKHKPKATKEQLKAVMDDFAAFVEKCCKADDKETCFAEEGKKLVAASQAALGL
Method: as §1

[3] = Phospholipid binding at pH 7.4 on IAM PC.DD2 HPLC column; type: physicochemical; parameters: key to CHI IAM: approximates acetonitrile concentration (%) in mobile phase at elution; conditions: for log k IAM: pH 7.4, derived from CHI IAM by equation 1; for CHI IAM: pH 7.4
Method: The phospholipid-binding was measured using an IAM PC.DD2 column with dimensions of 100 x 4.6 mm (Regis Technologies Inc., Morton Grove, IL, USA). The gradient retention times were measured using a 50 mM ammonium acetate mobile phase with the pH adjusted to 7.4. The mobile phase flow rate was 1.5 mL/min. […] The cycle time was 6 min, plus an additional 1 min equilibration time was applied while the injector prepared for the next injection. The gradient retention times were calibrated with the acetophenone homologues for which the CHI IAM values have been established using isocratic measurements. […] The CHI Index on the IAM column (CHI IAM) approximates the acetonitrile concentration in the mobile phase when the compound elutes. […] The CHI IAM values have been converted to log k IAM values derived from the CHI IAM values using equation 1. It represents the equivalent value derived from several isocratic measurements with extrapolated log retention factors to 100 % aqueous mobile phase. The log k IAM values can be converted to log K (IAM) values and show linear relationships with the octanol/water partition coefficients.

[4] = CHI lipophilicity by gradient reversed-phase HPLC (Gemini NX-C-18); conditions: for chromatographic logD: Gemini NX-C-18 reversed-phase HPLC column, pH 7.4; for chromatographic logP: reversed-phase HPLC, Gemini NX-C-18 column (50 x 3 mm, 5 µm)
Method: The Chromatographic Hydrophobicity Index (CHI) was measured using the compounds’ calibrated gradient retention times obtained from an Agilent 1100 HPLC fitted with a Gemini NX-C-18 column (Phenomenex Ltd Macclesfield, UK) with dimensions of 50 x 3 mm and 5 μm particle size. […] The mobile phase B was 100 % acetonitrile. […] An acetonitrile linear gradient was used from 0 to 100 %. […] The retention time values for a standard set of compounds listed in Table 1 were used to convert the drug retention times to CHI values.

[5] = Charge character of the drugs at pH 7.4; type: physicochemical
[6] = literature values, mean where several reported, molar

Compound	log k AGP ([1]; pH 7.4, Chiralpak AGP)	log k IAM [3]	chromatographic logD [4]	chromatographic logP [4]	Charge [5]	CHI IAM [3]	log k AGP ([1]; pH 7.4)	log k HSA ([2]; human, pH 7.4)	hERG pIC50 (hERG channel)	log k HSA ([2]; pH 7.4, Chiralpak HSA)	hERG pIC50 (hERG channel; [6])
COc1cc2nc(N(C)CCCNC(=O)C3CCCO3)nc(N)c2cc1OC (centres unmarked) [Alfuzosin]	0.32								4.28	0.08	
COc1ccc(CCN2CCC(Nc3nc4ccccc4n3Cc3ccc(F)cc3)CC2)cc1 [Astemizole]	1.12	2.77	2.68	3.52	Basic				6.69	1.17	
CC(C)COCC(CN(Cc1ccccc1)c1ccccc1)N1CCCC1 (centres unmarked) [Bepridil]	1.14	3.08	4.4	6.62	Basic					1.27	6.42
CN(C)CCC(c1ccc(Br)cc1)c1ccccn1 (centres unmarked) [Brompheniramine]	0.68	2.8	1.74	4.27	Basic					0.68	5.61
CCCCN1CCCCC1C(=O)Nc1c(C)cccc1C (centres unmarked) [Bupivacaine]	1.35	2.34	3.06	3.97	Weak Base	41.66				-0.10	5.51
COc1cc(N)c(Cl)cc1C(=O)NC1CCN(CCCOc2ccc(F)cc2)CC1OC (centres unmarked) [Cisapride]	0.84	2.35	2.65	3.17	Basic				6.88	1.11	
CC[C@H]1OC(=O)[C@H](C)[C@@H](O[C@H]2C[C@@](C)(OC)[C@@H](O)[C@H](C)O2)[C@H](C)[C@@H](O[C@@H]2O[C@H](C)C[C@H](N(C)C)[C@H]2O)[C@](C)(OC)C[C@@H](C)C(=O)[C@H](C)[C@@H](O)[C@]1(C)O [Clarithromycin]	0.20	2.70	1.9	4.55	Basic	49.68			4.32	-0.24	
CN1CCN(C2=Nc3cc(Cl)ccc3Nc3ccccc32)CC1 [Clozapine]	0.99	2.83	2.6	3.05	Weak Base	52.42				1.04	
CN(CCOc1ccc(NS(C)(=O)=O)cc1)CCc1ccc(NS(C)(=O)=O)cc1 [Dofetilide]	0.59		1.18	1.12	Weak Base				5.72	-0.05	
O=c1[nH]c2ccccc2n1CCCN1CCC(n2c(=O)[nH]c3cc(Cl)ccc32)CC1 [Domperidone]		2.42	1.37	2.13	Weak Base	43.47				1.02	
COc1cc2nc(N3CCN(C(=O)C4COc5ccccc5O4)CC3)nc(N)c2cc1OC (centres unmarked) [Doxazosin]	0.72	2.16	2.09	2.24	Weak Base					1.04	6.03
O=C(CCCN1CC=C(n2c(=O)[nH]c3ccccc32)CC1)c1ccc(F)cc1 [Droperidol]	1.69		2.26	2.68	Weak Base					0.98	
O=C(NCC1CCCCN1)c1cc(OCC(F)(F)F)ccc1OCC(F)(F)F (centres unmarked) [Flecainide]	0.16	2.33	1.68	3.01	Basic					-0.05	5.25
CN1C2CCCC1CC(NC(=O)c1nn(C)c3ccccc13)C2 (centres unmarked) [Granisetron]	0.52	2.53	0.79	2.5	Basic					0.34	
Nc1nnc(-c2cccc(Cl)c2Cl)c(N)n1 [Lamotrigine]	-0.33	1.49	0.86	0.81	Weak Base	23.25			3.55	0.16	
OC(c1cc(C(F)(F)F)nc2c(C(F)(F)F)cccc12)C1CCCCN1 (centres unmarked) [Mefloquine]	1.11		2.18	4.22	Basic				5.45	1.38	

Continued, in another order:

log k AGP ([1]; pH 7.4, Chiralpak AGP)	log k IAM [3]	chromatographic logD [4]	chromatographic logP [4]	Charge [5]	CHI IAM [3]	log k AGP ([1]; pH 7.4)	log k HSA ([2]; human, pH 7.4)	Compound	hERG pIC50 (hERG channel)	log k HSA ([2]; pH 7.4, Chiralpak HSA)	hERG pIC50 (hERG channel; [6])
1.10	1.62	1.39	2	Zwitterionic	26.14			CCCCC1=NC2(CCCC2)C(=O)N1Cc1ccc(-c2ccccc2-c2nnn[nH]2)cc1 [Irbesartan]		1.30	4.71
1.32	2.21	3.25	3.29	Neutral				COC(=O)C1=C(C)NC(C)=C(C(=O)OC(C)C)C1c1cccc2nonc12 (centres unmarked) [Isradipine]		1.19	5.71
1.25	2.34	3.25	4.2	Weak Base	41.83			CCCCN1CCCC[C@H]1C(=O)Nc1c(C)cccc1C [Levobupivacaine]		0.13	5.48
				Basic		0.23	0.15	CCN(CC)CCNC(=O)c1cc(Cl)c(N)cc1OC [Metoclopramide]			5.27
				Zwitterionic			0.54	COc1c(N2C[C@@H]3CCCN[C@@H]3C2)c(F)cc2c(=O)c(C(=O)O)cn(C3CC3)c12 [Moxifloxacin]			3.83
1.13	2.61	2.92	3.5	Weak Base				OCCN1CCN(CCCN2c3ccccc3Sc3ccc(Cl)cc32)CC1 [Perphenazine]			5.88
1.03	2.79	1.72	4.7	Weak Base				CNCCCC1c2ccccc2C=Cc2ccccc21 [Protriptyline]			5.30
1.59	2.36	3.31	3.39	Weak Base	42.17			CC(C)(C)NC(=O)[C@@H]1C[C@@H]2CCCC[C@@H]2CN1C[C@@H](O)[C@H](Cc1ccccc1)NC(=O)[C@H](CC(N)=O)NC(=O)c1ccc2ccccc2n1 [Saquinavir]			5.82
-1.41	1.43	-0.39	-0.35	Basic				CC(C)NCC(O)c1ccc(NS(C)(=O)=O)cc1 (centres unmarked) [Sotalol]			3.57
0.50	2.12	2.76	2.97	Neutral	36.93			CC(=O)S[C@@H]1CC2=CC(=O)CC[C@]2(C)[C@H]2CC[C@@]3(C)[C@@H](CC[C@@]34CCC(=O)O4)[C@H]12 [Spironolactone]		0.78	
0.46	1.93	2.51	2.59	Weak Base				O=c1n(CCCN2CCN(c3cccc(Cl)c3)CC2)nc2ccccn12 [Trazodone]			5.30
1.19	3.55	3.8	5.14	Basic				CN1CCN(CCCN2c3ccccc3Sc3ccc(C(F)(F)F)cc32)CC1 [Trifluoperazine]			5.72
